Measured values taken from article PMC9133015 (Nature Communications, 2022).
Several values for one entry are separate records, joined by “and”; a condition that tells them apart may be missing. Equal entries are not always repeated.

Key:
[1] = tested on: DU145 xenograft; assay: In vivo antitumor activity, DU145 xenograft mouse model; design: species or system BALB/c nude mice; conditions: for Body weight (Fig. 7b) / Tumor volume (Fig. 7a): individual mice 1-10
[2] = tested on: DU145 cells; assay: Apoptosis assay (Annexin V-APC/PI flow cytometry); assay type: cell-based, human; conditions: DU145, 2 μM, replicates
[3] = tested on: PC-3 cells; assay: Apoptosis assay (Annexin V-APC/PI flow cytometry); assay type: cell-based, human; conditions: PC-3; 2 µM; replicates
[4] = tested on: 22Rv1 cells; assay: Apoptosis assay (Annexin V-APC/PI flow cytometry); assay type: cell-based, human; conditions: 22Rv1, 0.5 μM, replicates
[5] = tested on: 22Rv1 cells; assay: Invasion assay (transwell); assay type: cell-based, human; conditions: 22Rv1, 0.5 μM, replicates
[6] = tested on: DU145 cells; assay: Invasion assay (transwell); assay type: cell-based, human; conditions: DU145, 2 μM, replicates
[7] = tested on: PC-3 cells; assay: Invasion assay (transwell); assay type: cell-based, human; conditions: PC-3; 2 µM; replicates
[8] = tested on: PC-3 cells; assay: Colony formation assay; assay type: cell-based, human; conditions: 2 µM, replicates
[9] = tested on: 22Rv1 cells; assay: Anti-proliferation activity assay (CCK8, 72 h); assay type: cell-based, human; conditions: 22Rv1; for Relative proliferation rate (%) / optical density: replicates
[10] = tested on: DU145 cells; assay: Cell growth assay (5-day course); assay type: cell-based, human; conditions: DU145, 2 μM
[11] = tested on: PC-3 cells; assay: Cell growth assay (5-day course); assay type: cell-based, human; conditions: PC-3, 4 µM; for Relative proliferation rate / optical density: replicates
[12] = tested on: 22Rv1 cells; assay: Cell growth assay (5-day course); assay type: cell-based, human; conditions: 22Rv1, 0.5 µM
[13] = tested on: DU145 cells; assay: Migration assay (transwell); assay type: cell-based, human; conditions: DU145, 2 μM, replicates
[14] = tested on: PC-3 cells; assay: Migration assay (transwell); assay type: cell-based, human; conditions: PC-3; 2 µM; replicates
[15] = tested on: 22Rv1 cells; assay: Migration assay (transwell); assay type: cell-based, human; conditions: 22Rv1, 0.5 μM, replicates

CC(=O)c1c(C)c2cnc(Nc3ccc(N4CCNCC4)cn3)nc2n(C2CCCC2)c1=O [palbociclib]
antitumor activity (in words) ([1]; DU145 xenograft, 100 mg/kg orally once a day, seven weeks): only delayed the tumor growth
Body weight (Fig. 7b) ([1]; Day 1): 20.6 and 19.7 and 20.3 (2×) and 19.6 and 19.8 and 20.4 and 20.1 and 21.5 and 21.1
Tumor volume (Fig. 7a) ([1]; Day 1, in cm³ (unit assumed)): 0.06799 and 0.07327 and 0.07849 and 0.09349 and 0.07486 and 0.07173 and 0.06955 and 0.08095 and 0.1033 and 0.07176
Body weight (Fig. 7b) ([1]; Day 3): 20.9 and 20.1 and 20.5 and 19.9 and 20.3 and 20.7 (2×) and 20.4 and 21.5 (2×)
Tumor volume (Fig. 7a) ([1]; Day 3): 0.109 (2×) and 0.1112 and 0.1321 and 0.1287 and 0.1049 and 0.09325 and 0.1073 and 0.1517 and 0.1054
Body weight (Fig. 7b) ([1]; Day 5): 21.2 and 20.4 and 20.7 (2×) and 20.2 and 20.5 and 20.8 and 21.6 and 21.8 and 20.9
Tumor volume (Fig. 7a) ([1]; Day 5, in cm³ (unit assumed)): 0.1433 and 0.1864 and 0.1614 and 0.176 and 0.1543 and 0.1645 and 0.1193 and 0.1528 and 0.2268 and 0.2014
Tumor volume (Fig. 7a) ([1]; Day 7, in cm³ (unit assumed)): 0.1784 and 0.235 and 0.2414 and 0.2692 and 0.217 and 0.2962 and 0.1705 and 0.2421 and 0.3416 and 0.2763
Body weight (Fig. 7b) ([1]; Day 7, in g (unit assumed)): 21.5 and 20.6 and 21 and 20.5 and 20.7 and 21.1 and 20.9 and 21.9 and 22.1 and 21.2
Body weight (Fig. 7b) ([1]; Day 9): 21.7 and 21 and 21.5 (2×) and 20.9 and 21.3 (2×) and 21.2 and 22.3 and 22.5
Tumor volume (Fig. 7a) ([1]; Day 9, in cm³ (unit assumed)): 0.239 and 0.3072 and 0.3051 and 0.3239 and 0.2873 and 0.3055 and 0.2456 and 0.3235 and 0.4654 and 0.3489
Body weight (Fig. 7b) ([1]; Day 11): 22.1 and 21.4 and 21.9 and 21.2 and 21.6 and 21.7 and 21.5 (2×) and 22.6 and 22.9
Tumor volume (Fig. 7a) ([1]; Day 11, in cm³ (unit assumed)): 0.3066 and 0.4081 and 0.3897 and 0.4352 and 0.3512 and 0.3909 and 0.2984 and 0.4401 and 0.56 and 0.4357
Tumor volume (Fig. 7a) ([1]; Day 13, in cm³ (unit assumed)): 0.3785 and 0.467 and 0.4591 and 0.5566 and 0.4456 and 0.4658 and 0.368 and 0.5218 and 0.6407 and 0.5062
Body weight (Fig. 7b) ([1]; Day 13, in g (unit assumed)): 22.5 and 21.7 and 22.2 and 21.4 and 21.9 and 22.1 and 21.6 and 23.1 and 23.2 and 21.8
Body weight (Fig. 7b) ([1]; Day 15): 22.9 and 22 and 22.4 and 21.6 and 22.1 (2×) and 22.5 and 21.7 and 23.3 and 23.5
Tumor volume (Fig. 7a) ([1]; Day 15, in cm³ (unit assumed)): 0.4581 and 0.5316 and 0.5555 and 0.6598 and 0.5071 and 0.5543 and 0.4465 and 0.6242 and 0.7718 and 0.6156
Body weight (Fig. 7b) ([1]; Day 17): 23.1 (2×) and 22.2 and 22.7 (2×) and 21.9 and 22.4 and 21.6 and 23.7 and 22.3
Tumor volume (Fig. 7a) ([1]; Day 17, in cm³ (unit assumed)): 0.5062 and 0.5921 and 0.6502 and 0.7599 and 0.6087 and 0.6352 and 0.4918 and 0.6837 and 0.8676 and 0.6822
Body weight (Fig. 7b) ([1]; Day 19): 23.4 (2×) and 22.5 and 23.1 (2×) and 22.3 and 22.8 and 21.9 and 23.9 and 22.6
Tumor volume (Fig. 7a) ([1]; Day 19, in cm³ (unit assumed)): 0.5936 and 0.6347 and 0.7034 and 0.8268 and 0.6585 and 0.679 and 0.5363 and 0.7534 and 0.9195 and 0.6727
Tumor weight (Fig. 7c) ([1]; reference drug groups, individual mice, in g (unit assumed)): 1.87 and 2.14 and 1.86 and 2.29 and 1.85 and 1.63 and 1.81 and 1.69 and 1.58
Apoptosis (%) [2]: 16.25% and 14.39% and 12.36%
Apoptosis (%) [3]: 13.98% and 14.78% and 15.2%
Apoptosis (%) [4]: 5.82% and 6.41% and 7.27%
Cell invasion (cell number) [5]: 531 cell number and 470 cell number and 513 cell number
Cell invasion (cell number) [6]: 1998 cell number and 2045 cell number and 2102 cell number
Cell invasion (cell number) [7]: 1678 cell number and 1789 cell number and 1654 cell number
Colony formation (cell number) [8]: 78 cell number and 83 cell number and 81 cell number
Relative proliferation rate (%) mean ([9]; 0.0049 uM): 10.7151%
Relative proliferation rate (%) ([9]; 0.0049 uM): 10.6906% and 8.054% and 13.4011%
optical density ([9]; 0.0049 uM): 0.944 and 0.959 and 0.937
Relative proliferation rate (%) mean ([9]; 0.078 uM): 28.5598%
Relative proliferation rate (%) ([9]; 0.078 uM): 28.5714% and 25.4075% and 31.7006%
optical density ([9]; 0.078 uM): 0.755 and 0.778 and 0.739
Relative proliferation rate (%) mean ([9]; 0.3125 uM): 42.3403%
Relative proliferation rate (%) ([9]; 0.3125 uM): 42.3841% and 37.8715% and 46.7652%
optical density ([9]; 0.3125 uM): 0.609 and 0.648 and 0.576
Relative proliferation rate (%) mean ([9]; 1.25 uM): 63.5644%
Relative proliferation rate (%) ([9]; 1.25 uM): 63.5762% and 60.0192% and 67.098%
optical density ([9]; 1.25 uM): 0.385 and 0.417 and 0.356
Relative proliferation rate (%) mean ([9]; 5 uM): 73.8099%
Relative proliferation rate (%) ([9]; 5 uM): 73.6991% and 70.3739% and 77.3567%
optical density ([9]; 5 uM): 0.278 and 0.309 and 0.245
Relative proliferation rate (%) mean ([9]; 20 uM): 83.6751%
Relative proliferation rate (%) ([9]; 20 uM): 83.6329% and 79.9616% and 87.4307%
optical density ([9]; 20 uM): 0.173 and 0.209 and 0.136
Relative proliferation rate (%) mean ([9]; 80 uM): 92.6404%
Relative proliferation rate (%) ([9]; 80 uM): 92.6206% and 87.0566% and 98.244%
optical density ([9]; 80 uM): 0.078 and 0.135 and 0.019
Relative proliferation rate mean ([10]; day 1): 1.596
Relative proliferation rate mean ([10]; day 2): 2.367
Relative proliferation rate mean ([10]; day 3): 5.211
Relative proliferation rate mean ([10]; day 4): 6.975
Relative proliferation rate mean ([11]; day 0): 1
Relative proliferation rate ([11]; day 0): 1
optical density ([11]; day 0): 0.261
Relative proliferation rate mean ([11]; day 1): 1.157
Relative proliferation rate ([11]; day 1): 1.143 and 1.182 and 1.147
optical density ([11]; day 1): 0.298 and 0.308 and 0.299
Relative proliferation rate mean ([11]; day 2): 1.563
Relative proliferation rate ([11]; day 2): 1.569 and 1.565 and 1.554
optical density ([11]; day 2): 0.409 and 0.408 and 0.405
Relative proliferation rate mean ([11]; day 3): 2.215
Relative proliferation rate ([11]; day 3): 2.206 and 2.244 and 2.194
optical density ([11]; day 3): 0.575 and 0.585 and 0.572
Relative proliferation rate mean ([11]; day 4): 4.39
Relative proliferation rate ([11]; day 4): 4.419 and 4.354 and 4.396
optical density ([11]; day 4): 1.152 and 1.135 and 1.146
Relative proliferation rate mean ([12]; day 1): 1.1416
Relative proliferation rate mean ([12]; day 2): 1.363
Relative proliferation rate mean ([12]; day 3): 1.755
Relative proliferation rate mean ([12]; day 4): 2.003
Cell migration (cell number) [13]: 4289 cell number and 4310 cell number and 4198 cell number
Cell migration (cell number) [14]: 267 cell number and 257 cell number and 249 cell number
Cell migration (cell number) [15]: 1008 cell number and 1108 cell number and 1169 cell number
